Common to all, as to format: functional
Assay [1] deals with Aspergillus niger. The assay can be described thus: Antifungal activity against Aspergillus niger after 48 hr by agar streak dilution method.
Assay [2] deals with Aspergillus clavatus. The experiment in a line: Antifungal activity against Aspergillus clavatus after 48 hr by agar streak dilution method.
Assay [3] deals with Aspergillus fumigatus. The experiment in a line: Antifungal activity against Aspergillus fumigatus after 48 hr by agar streak dilution method.
In assay [4] the test system is Aspergillus clavatus. The assay can be described thus: Antifungal activity against Aspergillus clavatus at 100 ug/disc after 48 hr by paper disk diffusion method. As to conditions: read-out: IZ. (In general: A growth-free zone around the sample is the usual read-out of agar diffusion tests.)
In assay [5] the test system is Candida albicans. The experiment in a line: Antifungal activity against Candida albicans after 48 hr by agar streak dilution method.
In assay [6] the test system is Aspergillus fumigatus. The assay can be described thus: Antifungal activity against Aspergillus fumigatus at 100 ug/disc after 48 hr by paper disk diffusion method. As to conditions: read-out: IZ.
For assay [7], the system named is Aspergillus niger. The experiment in a line: Antifungal activity against Aspergillus niger at 100 ug/disk after 48 hr by paper disk diffusion method. The conditions noted are these: read-out: IZ.
The test system of assay [8] is Candida albicans. The assay can be described thus: Antifungal activity against Candida albicans at 100 ug/disk after 48 hr by paper disk diffusion method. The conditions noted are these: read-out: IZ.
Assay [9] relates to Escherichia coli. The experiment in a line: Antibacterial activity against Escherichia coli at 100 ug/disk after 24 hr by paper disk diffusion method. The conditions noted are these: read-out: IZ.
Assay [10] deals with Staphylococcus aureus. The experiment in a line: Antibacterial activity against Staphylococcus aureus at 100 ug/disc after 24 hr by paper disk diffusion method. As to conditions: read-out: IZ.
Assay [11] has as its system Bacillus subtilis. The experiment in a line: Antibacterial activity against Bacillus subtilis at 100 ug/disk after 24 hr by paper disk diffusion method. As to conditions: read-out: IZ.
The test system of assay [12] is Klebsiella pneumoniae. The assay can be described thus: Antibacterial activity against Klebsiella pneumoniae at 100 ug/disk after 24 hr by paper disk diffusion method. As to conditions: read-out: IZ.
Assay [13] relates to Shigella flexneri. The experiment in a line: Antibacterial activity against Shigella flexneri at 100 ug/disc after 24 hr by paper disk diffusion method. As to conditions: read-out: IZ.
Assay [14] concerns Salmonella typhi. The experiment in a line: Antibacterial activity against Salmonella enterica subsp. enterica serovar Typhi after 24 hr by agar streak dilution method.
For assay [15], the system named is Bacillus subtilis. The assay can be described thus: Antibacterial activity against Bacillus subtilis after 24 hr by agar streak dilution method.
Assay [16] has as its system Pseudomonas aeruginosa. The experiment in a line: Antibacterial activity against Pseudomonas aeruginosa at 100 ug/disk after 24 hr by paper disk diffusion method. The conditions noted are these: read-out: IZ.
The test system of assay [17] is Proteus vulgaris. The assay can be described thus: Antibacterial activity against Proteus vulgaris at 100 ug/disk after 24 hr by paper disk diffusion method. As to conditions: read-out: IZ.
Assay [18] relates to Shigella flexneri. The assay can be described thus: Antibacterial activity against Shigella flexneri after 24 hr by agar streak dilution method.
Assay [19] deals with Pseudomonas aeruginosa. The experiment in a line: Antibacterial activity against Pseudomonas aeruginosa after 24 hr by agar streak dilution method.
The subject of assay [20] is Staphylococcus aureus. The experiment in a line: Antibacterial activity against Staphylococcus aureus after 24 hr by agar streak dilution method.
In assay [21] the test system is Escherichia coli. The experiment in a line: Antibacterial activity against Escherichia coli after 24 hr by agar streak dilution method.
Assay [22] concerns Klebsiella pneumoniae. The experiment in a line: Antibacterial activity against Klebsiella pneumoniae after 24 hr by agar streak dilution method.
Assay [23] has as its system Salmonella typhi. The assay can be described thus: Antibacterial activity against Salmonella enterica subsp. enterica serovar Typhi at 100 ug/disk after 24 hr by paper disk diffusion method. The conditions noted are these: read-out: IZ.
The subject of assay [24] is Proteus vulgaris. The experiment in a line: Antibacterial activity against Proteus vulgaris after 24 hr by agar streak dilution method.

Converted amounts (≈) assume the structure as drawn. Where only a bound is given, the exact number is not on record here.

By MIC is commonly meant the lowest concentration that inhibits growth of the organism. On to `CC(=O)N1CCN(c2ccc(OCC3COC(Cn4ccnc4)(c4ccc(Cl)cc4Cl)O3)cc2)CC1` (stereo unspecified) [KETOCONAZOLE], for which the MIC was not above 3 µg/mL against Aspergillus niger [1], 1 µg/mL (≈ 1.88 µM) with Aspergillus clavatus [2], 1 µg/mL (≈ 1.88 µM) in the assay on Aspergillus fumigatus [3] and 1 µg/mL (≈ 1.88 µM) with Candida albicans [5]. Also, the zone of inhibition at 100 µg/disc with Aspergillus clavatus [4] was found to be 31 mm; with Aspergillus fumigatus [6] it was 29 mm; in the assay with Aspergillus niger [7], 30 mm; in the assay on Candida albicans [8], 33 mm.

With `Cc1cc(=O)oc2cc(Oc3nc(Nc4ccc(N5C(=O)C(CN6CCN(c7ccccn7)CC6)SC5c5ccccc5)cc4)nc(N(C)C)n3)ccc12` (stereo unspecified), the zone of inhibition at 100 µg/disc was 16 mm with Escherichia coli [9]; 14 mm with Staphylococcus aureus [10]; 16 mm with Bacillus subtilis [11]; 13 mm in the assay on Klebsiella pneumoniae [12]; 15 mm in the assay on Shigella flexneri [13]; 16 mm with Aspergillus clavatus [4]. For the same compound, the zone of inhibition at 100 µg/disc in the assay with Pseudomonas aeruginosa [16] is 19 mm; with Aspergillus fumigatus [6], less than 10 mm; in the assay with Proteus vulgaris [17] it was 13 mm; in the assay with Aspergillus niger [7] it was 14 mm; with Salmonella typhi [23] it was 14 mm; in the assay with Candida albicans [8], 12 mm. Further, the MIC with Aspergillus niger [1], in the assay on Aspergillus clavatus [2], in the assay with Aspergillus fumigatus [3], with Salmonella typhi [14], against Bacillus subtilis [15] and against Candida albicans [5] was 100 µg/mL (≈ 135 µM) in each case. The MIC against Shigella flexneri [18] came out at 100 µg/mL (≈ 135 µM); against Pseudomonas aeruginosa [19], 50 µg/mL (≈ 67.4 µM); against Staphylococcus aureus [20], 100 µg/mL (≈ 135 µM); against Escherichia coli [21], 100 µg/mL (≈ 135 µM); in the assay on Klebsiella pneumoniae [22] it was 100 µg/mL (≈ 135 µM); in the assay on Proteus vulgaris [24] it was 100 µg/mL (≈ 135 µM).

For `COc1ccc(C2SC(CN3CCN(c4ccccn4)CC3)C(=O)N2c2ccc(Nc3nc(Oc4ccc5c(C)cc(=O)oc5c4)nc(N(C)C)n3)cc2)cc1` (stereo unspecified), the zone of inhibition at 100 µg/disc was found to be 16 mm in the assay with Escherichia coli [9]; 21 mm with Staphylococcus aureus [10]; 19 mm in the assay with Bacillus subtilis [11]; 19 mm with Klebsiella pneumoniae [12]; 17 mm in the assay with Shigella flexneri [13]; 19 mm in the assay on Aspergillus clavatus [4]. In addition, the zone of inhibition at 100 µg/disc in the assay on Pseudomonas aeruginosa [16] is 18 mm; in the assay on Aspergillus fumigatus [6], 20 mm; in the assay on Proteus vulgaris [17], 20 mm; in the assay on Aspergillus niger [7], 22 mm; in the assay with Salmonella typhi [23], 22 mm; in the assay with Candida albicans [8], 23 mm. Further, the MIC against Aspergillus niger [1] came to 25 µg/mL (≈ 32.4 µM); against Aspergillus clavatus [2], 50 µg/mL (≈ 64.8 µM); in the assay with Aspergillus fumigatus [3], 25 µg/mL (≈ 32.4 µM); with Salmonella typhi [14], 25 µg/mL (≈ 32.4 µM); with Bacillus subtilis [15] it was 25 µg/mL (≈ 32.4 µM); in the assay on Candida albicans [5] it was 25 µg/mL (≈ 32.4 µM). Also, the MIC in the assay with Shigella flexneri [18] was 100 µg/mL (≈ 130 µM); with Pseudomonas aeruginosa [19] it was 100 µg/mL (≈ 130 µM); with Staphylococcus aureus [20], 25 µg/mL (≈ 32.4 µM); against Escherichia coli [21] it was 100 µg/mL (≈ 130 µM); against Klebsiella pneumoniae [22], 50 µg/mL (≈ 64.8 µM); with Proteus vulgaris [24], 50 µg/mL (≈ 64.8 µM).

Take `O=C(O)c1cn(C2CC2)c2cc(N3CCNCC3)c(F)cc2c1=O` [CIPROFLOXACIN]: the zone of inhibition at 100 µg/disc came to 32 mm in the assay on Escherichia coli [9]; 30 mm in the assay with Staphylococcus aureus [10]; 31 mm in the assay with Bacillus subtilis [11]; 33 mm with Klebsiella pneumoniae [12]; 32 mm with Shigella flexneri [13]; 33 mm in the assay on Pseudomonas aeruginosa [16]. The zone of inhibition at 100 µg/disc in the assay with Proteus vulgaris [17] was 31 mm; with Salmonella typhi [23], 30 mm. The MIC was 1 µg/mL (≈ 3.02 µM) in the assay on Salmonella typhi [14]; 1 µg/mL (≈ 3.02 µM) in the assay on Bacillus subtilis [15]; not above 3 µg/mL in the assay with Shigella flexneri [18]; 1 µg/mL (≈ 3.02 µM) against Pseudomonas aeruginosa [19]; 1 µg/mL (≈ 3.02 µM) in the assay with Staphylococcus aureus [20]; 1 µg/mL (≈ 3.02 µM) in the assay on Klebsiella pneumoniae [22]. Moreover, the MIC against Proteus vulgaris [24] was found to be 1 µg/mL (≈ 3.02 µM).

(Values after ChEMBL document CHEMBL3046897, “Synthesis of 3-{4-[4-dimethylamino-6-(4-methyl-2-oxo-2H-chromen-7-yloxy)-[1,3,5]triazin-2-ylamino]-phenyl}-2-phenyl-5-(4-pyridin-2-yl-piperazin-1-ylmethyl)-thiazolidin-4-one and their biological evaluation” (2012).)
